In US20220169639A1 (priority 2018, published 2022) one finds IC50 data, which are given here for 25 molecules.

Test [1] deals with HBeAg (surrogate marker for cccDNA) in HepDES19 cells. The experiment in a line: Engineered HepDES19 primary screen assay (HBeAg ELISA). The test is classed as cell-based, HBV. The conditions noted are these: Hepatitis B virus, 120 h, HBeAg in culture supernatant, 5 days incubation, read-out: IC50 (HepDES19 primary screen assay, inhibition of extracellular HBeAg level). The method in brief: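 HepDES19 cells pre-induced by Tet withdrawal for 8 days, frozen, then seeded and dosed after 24 h with half-log compound dilutions (1% DMSO final). After 5 days at 37 °C, HBeAg measured by ELISA and viability by CCK-8; IC50 from 4-parameter logistic fit.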
(An ELISA detects its analyte on a solid surface through an enzyme-linked reagent.)

In test [2] the test system is HBV (HBsAg) in HBV-infected PHH. Put plainly: Cryopreserved primary human hepatocytes (PHH) HBV infection assay, extracellular HBsAg (CLIA). The following applies: Hepatitis B virus, Hepatocyte, 216 h, read-out: HBsAg IC50. The test is classed as cell-based. As to the method: This assay is used to confirm the anti-HBV effect of the compounds in HBV PHH infection assay. Cryopreserved PHH (BioreclamationIVT, Lot YJM) was thawed at 37° C. and gently transferred into pre-warmed InVitroGRO HT medium (BioreclamationIVT, Cat. S03317). The mixture was centrifuged at 70 relative centrifugal force (RCF) for 3 minutes at RT, and the supernatant was discarded. Pre-warmed InVitroGRO CP medium (BioreclamationIVT, Cat #S03316) was added to the cell pellet to gently re-suspend cells. The cells were seeded at the density of 5.8×10^4 cells per well to collagen I coated 96-well plate (Gibco, Cat. A1142803) with the InVitroGRO CP medium. All plates were incubated at 37° C. with 5% CO2 and 85% humidity.
At 20 hours after plating, the medium was changed to PHH culture medium (Dulbecco's Modified Eagle Medium (DMEM)/F12 (1:1) (Gibco, Cat. 11320-033), 10% fetal bovine serum (Gibco Cat. 10099141), 100 U/mL penicillin, 100 μg/mL streptomycin (Gibco, Cat. 151401-122), 5 ng/mL human epidermal growth factor (Invitrogen Cat. PHG0311L), 20 ng/mL dexamethasone (Sigma, Cat. D4902) and 250 ng/mL human recombinant insulin (Gibco, Cat. 12585-014)). And the cells were incubated at 37° C. with 5% CO2 and 85% humidity for 4 hours. The medium was then changed to pre-warmed PHH culture medium containing 4% polyethylene glycol (PEG) MW8000 (Sigma, Cat. P1458-50ML) and 1% DMSO (Sigma, Cat. D2650). 5.8×10^6 genomic equivalents of HBV were added into the medium.
At 24 hours post-infection, the cells were gently washed with PBS and refreshed with PHH culture medium supplemented with 1% DMSO, and 0.25 mg/mL Matrix gel (Corning, Cat. 356237) at 200 μL per well. All plates were immediately placed in at 37° C. CO2 incubator. 24 hours later, serial dilutions of compounds made with DMSO were further diluted with the same culture medium (PHH culture medium supplemented with 1% DMSO and 0.25 mg/mL Matrix gel as described above) before they were added to the cells to reach desired final compound concentrations and 1% DMSO concentration. The medium containing the compounds were refreshed every three days.
At 9 days post-compound treatment, extracellular HBsAg level were measured with Chemiluminescence Immuno Assay (CLIA) kit (Autobio, HBsAg Quantitative CLIA). Extracellular HBV DNA was extracted by MagNA Pure 96 system (Roche) and then determined
HBsAg IC50 and HBV DNA IC50 values were derived from the dose-response curve using 4 parameter logistic curve fit method. The compounds of formula (I) have HBsAg IC50<20 μM, particularly <1 μM; and HBV DNA IC50<50 μM. Results of Cryopreserved PHH assay are given in TableBIO2.

Broadly, the IC50 is the midpoint of a concentration-inhibition curve. Regarding `CS(=O)(=O)NC(=O)C1CCCN1CCOc1cc(C(F)(F)F)ccc1-c1cc(=O)c2cccc(Cl)c2o1` (centres unmarked) [Example 073, 1-[2-[2-(8-chloro-4-oxo-chromen-2-yl)-5-(trifluoromethyl)phenoxy]ethyl]-N-methylsulfonyl-pyrrolidine-2-carboxamide], the concentration for half-maximal inhibition (IC50) in test [1] came out at 0.14 µM; in test [2], 7.47 µM.

`CS(=O)(=O)C1CCN(CCOc2cc(Br)ccc2-c2cc(=O)c3cccc(Cl)c3o2)C1` (centres unmarked) [Example 084]: the IC50 in test [1] amounted to 0.59 µM; in test [2], 3.48 µM.

In the case of `O=c1cc(-c2ccc(C(F)(F)F)cc2OCCCN2C[C@@H](O)[C@@H](O)C2)oc2c(Cl)cccc12` [Example 077, 8-chloro-2-[2-[3-[(3R,4S)-3,4-dihydroxypyrrolidin-1-yl]propoxy]-4-(trifluoromethyl)phenyl]chromen-4-one], the IC50 in test [1] turned out to be 0.05 µM; in test [2], 2.18 µM.

In the case of `O=C(O)C(=O)NCCOc1cc(C(F)(F)F)ccc1-c1cc(=O)c2cccc(Cl)c2o1` [Example 119, 2-[2-[2-(8-chloro-4-oxo-chromen-2-yl)-5-(trifluoromethyl)phenoxy]ethylamino]-2-oxo-acetic acid], the IC50 in test [1] stood at 3.43 µM; in test [2] it was 0.67 µM.

With `O=C(O)[C@@H]1CCN(CCOc2cc(Br)ccc2-c2cc(=O)c3c(C(F)(F)F)ccc(Cl)c3o2)C1` [Example 041, (3R)-1-[2-[5-bromo-2-[8-chloro-4-oxo-5-(trifluoromethyl)chromen-2-yl]phenoxy]ethyl]pyrrolidine-3-carboxylic acid], the results for the concentration for half-maximal inhibition (IC50) in test [1] and in test [2] were 0.03 µM and 5.48 µM, respectively.

Consider `O=C(O)[C@H]1CCN(CC(O)COc2cc(Br)ccc2-c2cc(=O)c3cccc(Cl)c3o2)C1` (stereo partly drawn) [Example 164, (3S)-1-[3-[5-bromo-2-(8-chloro-4-oxo-chromen-2-yl)phenoxy]-2-hydroxy-propyl]pyrrolidine-3-carboxylic acid], for which the IC50 amounted to 2.96 µM in test [1] and 9.66 µM in test [2].

For the molecule `CC(=O)N1CCN(CCOc2cc(Br)ccc2-c2cc(=O)c3cccc(Cl)c3o2)CC1` [Example 082], the IC50 in test [1] is 0.24 µM; in test [2], 7.56 µM.

For the molecule `COc1cc(-c2cc(=O)c3cccc(Cl)c3o2)c(OCCCN2CC[C@@H](C(=O)O)C2)cc1Br` [Example 016, (3R)-1-[3-[5-bromo-2-(8-chloro-4-oxo-chromen-2-yl)-4-methoxy-phenoxy]propyl]pyrrolidine-3-carboxylic acid], the IC50 in test [1] was 0.89 µM; in test [2], 7.64 µM.

In the case of `O=c1cc(-c2ccc(Br)cc2OCCN2CCC(c3nnn[nH]3)CC2)oc2c(Cl)cccc12` [Example 087], the concentration for half-maximal inhibition (IC50) in test [1] stood at 5.24 µM; in test [2] it was 7.84 µM.

Consider `O=C(O)C1CCCN1CCOc1cc(Br)ccc1-c1cc(=O)c2cccc(Cl)c2o1` (centres unmarked) [Example 020, 1-[2-[5-bromo-2-(8-chloro-4-oxo-chromen-2-yl)phenoxy]ethyl]pyrrolidine-2-carboxylic acid], for which the 50% inhibitory concentration (IC50) in test [1] is 0.87 µM; in test [2], 8.36 µM.

As for `O=C(O)C1CN(CCCOc2cc(Br)ccc2-c2cc(=O)c3cccc(Cl)c3o2)CCO1` (centres unmarked) [Example 002, 4-[3-[5-bromo-2-(8-chloro-4-oxo-chromen-2-yl)phenoxy]propyl]morpholine-2-carboxylic acid], the half-maximal inhibitory concentration (IC50) is 0.25 µM in test [1] and 4.01 µM in test [2].

Regarding `O=C(O)C1CCN(CCCOc2cc(Br)ccc2-c2cc(=O)c3cccc(Cl)c3o2)C1` (centres unmarked) [Example 001, 1-[3-[5-bromo-2-(8-chloro-4-oxo-chromen-2-yl)phenoxy]propyl]pyrrolidine-3-carboxylic acid], the half-maximal inhibitory concentration (IC50) worked out at 0.35 µM in test [1] and 5.43 µM in test [2].

For `CC(=O)NCCCOc1cc(C(F)(F)F)ccc1-c1cc(=O)c2cccc(Cl)c2o1` [Example 098], the IC50 in test [1] was determined as 4.34 µM; in test [2], 6.34 µM.

As for `NC(=O)CNCCOc1cc(C(F)(F)F)ccc1-c1cc(=O)c2cccc(Cl)c2o1` [Example 167, 2-[2-[2-(8-chloro-4-oxo-chromen-2-yl)-5-(trifluoromethyl)phenoxy]ethylamino]acetamide], the half-inhibitory concentration (IC50) in test [1] is 3.3 µM; in test [2], 7.94 µM.

Take `O=C1CCCN1CCOc1cc(Br)ccc1-c1cc(=O)c2cccc(Cl)c2o1` [Example 075, 1-[2-[5-bromo-2-(8-chloro-4-oxo-chromen-2-yl)phenoxy]ethyl]pyrrolidin-2-one]: the IC50 is 0.11 µM in test [1] and 3.57 µM in test [2].

`O=C(O)C1CN(CCOCCOc2cc(Br)ccc2-c2cc(=O)c3cccc(Cl)c3o2)CCO1` (centres unmarked) [Example 049, 4-[2-[2-[5-bromo-2-(8-chloro-4-oxo-chromen-2-yl)phenoxy]ethoxy]ethyl]morpholine-2-carboxylic acid]: the figures for the IC50 in test [1] and in test [2] were 2.81 µM and 7.81 µM, respectively.

On to `O=C(O)[C@@H]1CCN(CCOCCOc2cc(Br)ccc2-c2cc(=O)c3cccc(Cl)c3o2)C1` [Example 047, (3R)-1-[2-[2-[5-bromo-2-(8-chloro-4-oxo-chromen-2-yl)phenoxy]ethoxy]ethyl]pyrrolidine-3-carboxylic acid], for which the IC50 was determined as 0.99 µM in test [1] and 2.83 µM in test [2].

Regarding `CS(=O)(=O)C1CCN(CCCOc2cc(C(F)(F)F)ccc2-c2cc(=O)c3cccc(Cl)c3o2)C1` (centres unmarked) [Example 088, 8-chloro-2-[2-[3-(3-methylsulfonylpyrrolidin-1-yl)propoxy]-4-(trifluoromethyl)phenyl]chromen-4-one], the IC50 in test [1] amounted to 0.27 µM; in test [2], 7.8 µM.

For `CCOC(=O)C(=O)NCCOc1cc(C(F)(F)F)ccc1-c1cc(=O)c2cccc(Cl)c2o1` [Example 101, ethyl 2-[2-[2-(8-chloro-4-oxo-chromen-2-yl)-5-(trifluoromethyl)phenoxy]ethylamino]-2-oxo-acetate], the values for the IC50 in test [1] and in test [2] were 1.08 µM and 1.41 µM, respectively.

Take `O=C(O)C1CC2CCC(C1)N2CCOc1cc(Br)ccc1-c1cc(=O)c2cccc(Cl)c2o1` (centres unmarked) [Example 025, 8-[2-[5-bromo-2-(8-chloro-4-oxo-chromen-2-yl)phenoxy]ethyl]-8-azabicyclo[3.2.1]octane-3-carboxylic acid]: the values for the IC50 in test [1] and in test [2] were 0.79 µM and 7.63 µM, respectively.

With `O=C(O)C1CCC(NCCCOc2cc(C(F)(F)F)ccc2-c2cc(=O)c3cccc(Cl)c3o2)C1` (centres unmarked) [Example 007, 3-[3-[2-(8-chloro-4-oxo-chromen-2-yl)-5-(trifluoromethyl)phenoxy]propylamino]cyclopentanecarboxylic acid], the results for the half-inhibitory concentration (IC50) in test [1] and in test [2] were 9.5 µM and 4.95 µM, respectively.

As to `NC(=O)C(=O)NCCOc1cc(C(F)(F)F)ccc1-c1cc(=O)c2cccc(Cl)c2o1` [Example 146, N′-[2-[2-(8-chloro-4-oxo-chromen-2-yl)-5-(trifluoromethyl)phenoxy]ethyl]oxamide], the IC50 stood at 0.33 µM in test [1] and 7.08 µM in test [2].

On to `O=C(O)C1COCCN1CCOc1cc(Br)ccc1-c1cc(=O)c2cccc(Cl)c2o1` (centres unmarked) [Example 052, 4-[2-[5-bromo-2-(8-chloro-4-oxo-chromen-2-yl)phenoxy]ethyl]morpholine-3-carboxylic acid], for which the figures for the IC50 in test [1] and in test [2] were 0.08 µM and 5.82 µM, respectively.

On to `O=C(O)C1CC(NCCCOc2cc(C(F)(F)F)ccc2-c2cc(=O)c3cccc(Cl)c3o2)C1` (centres unmarked) [Example 006, 3-[3-[2-(8-chloro-4-oxo-chromen-2-yl)-5-(trifluoromethyl)phenoxy]propylamino]cyclobutanecarboxylic acid], for which the concentration for half-maximal inhibition (IC50) worked out at 4.68 µM in test [1] and 3.82 µM in test [2].

As to `CS(=O)(=O)NC(=O)[C@@H]1CCN(CCOc2cc(Br)ccc2-c2cc(=O)c3cccc(Cl)c3o2)C1` [Example 064, (3R)-1-[2-[5-bromo-2-(8-chloro-4-oxo-chromen-2-yl)phenoxy]ethyl]-N-methylsulfonyl-pyrrolidine-3-carboxamide], the values for the IC50 in test [1] and in test [2] were 0.08 µM and 6.41 µM, respectively.
